Legend:
Format in all cases: in vivo
[1] = tested on: C57BL/6 mice with cisplatin-induced cachexia; experiment: Body weight and muscle mass in cisplatin-treated C57BL/6 mice
Experimental: (§1) The animal experiments were performed in accordance with internationally accepted principles for laboratory animal use and care, and the corresponding study protocol was reviewed and approved by the Institutional Animal Care and Use Committee (IACUC) at Chung-Ang University (approval #2021-00022). Four-week-old female C57BL/6 mice and Balb/c mice were purchased from Raonbio Inc. (Yongin, Korea) and were provided with standard laboratory diet and water ad libitum in the animal facility of Chung-Ang University. After a week of acclimation, the mice were intraperitoneally injected three times with 3 mg/kg/day cisplatin, suspended in 200 μL saline, every other day. Control group mice (sham-treated mice) were injected with the same volume of saline under the same regimen. The cisplatin-treated groups were orally administered paeoniflroin (Pae) or megestrol acetate (MA), suspended in 200 μL distilled water, every day until euthanasia.
(§2) Specifically, the cisplatin-treated groups were orally administered paeoniflorin (prepared in Example 1) at a dose of 5 (Pae 5 group), 10 (Pae 10 group), or 20 (Pae 20 group) mg/kg once daily for 9 days. The comparative drug-treated group was orally administered megestrol acetate (MA), which is currently most commonly prescribed for cancer cachexia patients in clinical practice, at a dose of 160 mg/kg (=800 mg [daily human dose]/60 kg [average human body weight]×12 [dose equivalent factor based on human:mouse body surface area ratio], once daily for 9 days.
(§3) In addition, cisplatin-treated mice orally administered the same volume of distilled water were designated as the vehicle group. After completion of drug treatment, the mice of each group were euthanized with 10 mg/kg alfaxalone (Jurox, Rutherford, Australia). Blood was collected in test tubes containing EDTA, and centrifuged, and plasma was separated therefrom. Gastrocnemius and quadriceps skeletal muscles were dissected and weighed. The skeletal muscles were rapidly frozen in liquid nitrogen to be used for RT-qPCR, Western blotting, and ELISA.

[2] = tested on: Balb/c mice with cisplatin-induced cachexia; experiment: Body weight and muscle mass in cisplatin-treated Balb/c mice
Experimental: as §1, §2, §3

[3] = tested on: C57BL/6 mice with cisplatin-induced cachexia; experiment: Skeletal muscle function test in cisplatin-treated C57BL/6 mice; settings: oral paeoniflorin 10 or 20 mg/kg
Experimental: as §1
Specifically, the cisplatin-treated groups were orally administered paeoniflorin (prepared in Example 1) at a dose of 5 (Pae 5 group), 10 (Pae 10 group), or 20 (Pae 20 group) mg/kg once daily for 9 days. […]
A skeletal muscle function test was conducted one day before euthanasia. Muscle strength of each mouse was measured by the grip strength of front paws, and endurance of each mouse was measured by treadmill running time until exhaustion. Motor coordination was measured by retention time on a rotating cylinder with a diameter of 3 cm (Castro and Kuang, 2017). The grip strength of each mouse was measured using a grip strength meter (Bio-GS3, Bioseb, Vitrolles, France). The treadmill running time of each mouse was measured on a treadmill (Exer-3/6, Columbus Instruments, […], USA). The ability of each mouse to stay on a rotating cylinder was measured using a rotarod apparatus (Panlab, Barcelona, Spain).

[4] = tested on: TNF-α, IL-6, IL-1β, IL-1α, CCL2 and CCL5; experiment: mRNA levels of pro-inflammatory cytokines and chemokines in skeletal muscle by real-time PCR, C57BL/6 mice; settings: cisplatin-treated, Pae 10 and Pae 20 vs vehicle
Experimental: as §3
Total RNA was isolated from skeletal muscle using Qiazol (Qiagen, Germany), and then the mRNA levels of pro-inflammatory cytokines and muscle-specific ubiquitin E3 ligases (MuRF1 and MAFbx) were measured by real-time PCR.
The mRNA levels of pro-inflammatory cytokines such as TNF-α, IL-6, IL-1β, and IL-1α, as well as chemokines such as CCL2 and CCL5, in the skeletal muscle, were measured by real-time PCR.

[5] = tested on: Balb/c mice with colon-26 carcinoma-induced cachexia; experiment: Body weight and muscle mass in Balb/c mice with colon-26 carcinoma-induced cachexia; settings: colon-26 carcinoma-injected, paeoniflorin orally once daily for 9 days vs colon-26 carcinoma-injected group
Experimental: As the experimental animals, 4-week-old female C57BL/6 mice and Balb/c mice weighing 18 g to 20 g were purchased from Raon Bio (Yongin, Korea), acclimatized in the laboratory animal facility for one week, and then used in the experiment. During the experiment period, the animals were provided with solid feed and water ad libitum, and the breeding room was maintained at a temperature of 20° C. to 24° C. and a relative humidity of 55% to 65% with a 12-hr light/12-hr dark cycle.
Mice were divided into a control group and a cachexia-induced group, and the cachexia-induced group was subdivided into a tumor cell-injected group, a tumor cell-injected and existing drug (MA, megestrol acetate)-administered group, and tumor cell-injected and paeoniflorin (Pae)-administered groups. Each group consisted of 10 animals.
(§4) Each mouse of the control group was injected subcutaneously with 100 μL of saline solution. For the cachexia-induced groups, Lewis lung carcinoma cells (C57BL/6 mice) or colon-26 carcinoma cells (Balb/c mice) were injected subcutaneously into the flank area of each mouse at a dose of 10^6 cells/100 μL/mouse. […] After completion of 9 days of administration, the muscle strength of the mice was measured using a grip strength test device (Bioseb, USA), and the endurance of the mice was measured using a treadmill device (Columbus Instrument, USA).
(§5) After completion of the experiment, the mice were euthanized, blood was collected therefrom, the body weight excluding tumors, and the weights of the hind limb gastrocnemius muscle and quadriceps muscle were measured. GDF-15 in the serum was quantified by ELISA.

GDF-15 = GDF-15 by ELISA in C57BL/6 mice with Lewis lung carcinoma-induced cachexia; settings: Lewis lung carcinoma-injected, paeoniflorin orally for 9 days, FIG. 18
Experimental: as §4, §5
After oral administration of paeoniflorin to the tumor-induced mice for 9 days, blood was collected from the mice, and the plasma concentration of GDF-15 protein was analyzed by ELISA.

## C[C@@]12C[C@@]3(O)O[C@@H](O1)[C@]1(COC(=O)c4ccccc4)[C@H]3C[C@@]12O[C@@H]1O[C@H](CO)[C@@H](O)[C@H](O)[C@H]1O [paeoniflorin]
[1]; cisplatin 3 mg/kg/day i.p. three times, paeoniflorin 10 or 20 mg/kg orally daily for 9 days, vs vehicle, FIG. 1A
  cisplatin-induced weight loss (body weight): attenuated
[1]; cisplatin-treated, paeoniflorin 10 or 20 mg/kg orally daily, FIG. 1B
  weight of gastrocnemius muscle (skeletal muscle mass): restored
[1]; cisplatin-treated, paeoniflorin 10 or 20 mg/kg orally daily, FIG. 1C
  weight of quadriceps muscle (skeletal muscle mass): restored
[2]; Pae 5, Pae 10, Pae 20 (mg/kg orally daily) vs negative control group, FIG. 2A
  body weight: increased
[2]; Pae 5, Pae 10, Pae 20 vs negative control group, FIG. 2B
  weight of gastrocnemius muscle: increased
[2]; Pae 5, Pae 10, Pae 20 vs negative control group, FIG. 2C
  weight of quadriceps muscle: increased
[3]; FIG. 3A
  grip strength (muscle strength): significantly restored
[3]; FIG. 3B
  treadmill running time (endurance): significantly restored
[3]; FIG. 3C
  rotarod retention time (motor coordination): significantly restored
[4]; FIG. 8A
  TNF-α mRNA expression level in the muscle: decreased
[4]; FIG. 8B
  IL-6 mRNA expression level in the muscle: decreased
[4]; FIG. 8C
  IL-1β mRNA expression level in the muscle: decreased
[4]; FIG. 8D
  IL-1α mRNA expression level in the muscle: decreased
[4]; FIG. 8E
  CCL2 mRNA expression level in the muscle: decreased
[4]; FIG. 8F
  CCL5 mRNA expression level in the muscle: decreased
[5]; FIG. 15A
  body weight: significantly increased
[5]; FIG. 15B
  weight of gastrocnemius muscle: significantly increased
[5]; FIG. 15C
  weight of quadriceps muscle: significantly increased
GDF-15
  serum concentration of GDF-15: significantly decreased
